Reference: patent US12152048B2, “Nitroxoline prodrug and use thereof” (Jiangsu Yahong Meditech Co., Ltd., priority 2018, dated 2024)
Values after ≈ are worked out from the molar mass of the structure shown.

Assays:
[1] = Determination of water solubility in phosphate buffer; type: physicochemical; conditions: thermodynamic from solid, 24 hours
Summary of the method: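 Thermodynamic solubility: compound concentration measured by LC/MS/MS in the vacuum filtrate after 24 h shaking at room temperature of 2 mg powder in 500 μL phosphate buffer at pH 1.2, 4.5, 6.8 or 7.4.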

[2] = Stability in mouse liver microsome; type: in vitro ADME; conditions: 2 μM, 37° C., 30 minutes
Stability in dog plasma = type: in vitro ADME
Excerpt: (§1) Experimental instruments: thermostatic shaker (SHA-B, Guohua Electric Appliance Co., Ltd.); centrifuge (5810R, Eppendorf); mass spectrometry (AP4000, Applied Biosystems, USA); liquid chromatography (LC-30AD, Shimadzu); sample injector (CTC Analytics AG System, CTC).
(§2) Test animals: plasma of human (batch number: BRH1343165), rat (batch number: RAT336728), mouse (batch number: MSE280000), dog (batch number: BGL99137) and monkey (batch number: PH-Monkey-20180821) are purchased from Shanghai Sixin Biological Technology Co., Ltd.
(§3) Experimental process: the compound of the present invention was dissolved in an organic solvent to obtain a 1 mM working solution. 3 μL of the working solution were added to 597 μL of pre-incubated human or rat plasma and mixed well. 50 μL of the solution were immediately taken out as the 0 minute sample. The remaining sample was incubated at 37° C., and 50 μL of sample were taken out at 15, 30, 60 and 120 minutes respectively. All the samples taken out were immediately processed to precipitate protein, and centrifuged to obtain a supermate for the determination of the compound concentration by LC/MS/MS.

[3] = Stability in monkey plasma; type: in vitro ADME
Excerpt: as §1, §2, §3

[4] = Pharmacokinetics assay in dog (nitroxoline concentration in plasma after single intravenous or oral administration); type: in vivo, beagle dog; conditions: for absorption in beagle dogs compared with nitroxoline: conclusion in words; for AUC0-inf: nitroxoline in beagle dog plasma
Excerpt: Nitroxoline is mainly metabolized by the phase II metabolism in liver with a fast metabolism rate, so it has a short half-life in the body. The present invention modified its structure and 13 compounds of formula (I) were obtained through chemical synthesis. The change of nitroxoline concentration in dog plasma after a single intravenous or oral administration of nitroxoline and the compound of formula (I) was studied to evaluate the pharmacokinetic behavior of nitroxoline and the compound of formula (I) in dog body.
Male beagle dog (Beijing Marshall Biotechnology Co., Ltd., Certificate No.: SCXK (BJ) 2016-0001, Qualified number: 11400600001728), 3 dogs per group, weight 10 to 13 kg, 20 to 22 months old. The dogs were fasted overnight before the administration with free access to water, and fed 4 hours after the administration. The test compound was added to an EP tube, and then added with DMSO, solutol and sterilized water for injection (the volume ratio of the three was 1:2:17, v:v:v). The EP tube was subjected to ultrasound for 20 minutes to make the test compound dissolve well (compound concentration: 0.005 mmol/mL). The dose for intravenous administration was 0.01 mmol/kg, and the dose for oral administration was 0.1 mmol/kg. 0.3 ml of whole blood was collected from jugular vein before the administration (0 hour) and 0.0833, 0.25, 0.5, 1, 2, 4, 6, 8, 10 and 12 hours after the administration (sampling points can be adjusted according to the specific situation) respectively. The blood sample was placed in a centrifuge tube containing EDTA-K2 anticoagulant (Aldrich), and the centrifuge tube was left to stand in ice. The blood sample was centrifuged for 10 minutes at 1530 g within 0.5 hour to obtain all clean plasma. The plasma was placed in another clean centrifuge tube, and stored in a refrigerator at −20° C. for later use.
Solution for standard curve was formulated. 1000 μL of internal standard working solution (containing a solution of verapamil (5 ng/mL, Aldrich), glibenclamide (50 ng/mL, Aldrich) and diclofenac (50 ng/mL, Aldrich) in acetonitrile) was added to 10 μL of the solution for standard curve and sample, and the mixture was shaked by vortex for 5 minutes. The mixture was centrifuged for 10 minutes at 4° C., 3700 rpm. 60 μL of the supernatant were placed in an injection tube, and mixed with 120 μL of water. 10 μL of the solution were injected into the liquid chromatography-mass spectrometry system for determination. The pharmacokinetic parameters were calculated by the WinNonlin V 6.2 non-compartmental model.

[5] = Stability in human plasma
[6] = Stability in dog liver microsome; conditions: 2 μM, 37° C., 30 minutes
[7] = Stability in rat liver microsome; conditions: 2 μM, 37° C., 30 minutes
[8] = Stability in human liver microsome; conditions: 2 μM, 37° C., 30 minutes
[9] = Stability in mouse plasma; type: in vitro ADME
Excerpt: as §1, §2, §3

[10] = aqueous buffer, phosphate buffer pH 4.5, room temperature
[11] = aqueous buffer, phosphate buffer pH 6.8, room temperature
[12] = aqueous buffer, phosphate buffer pH 7.4, room temperature
[13] = simulated gastric fluid, phosphate buffer pH 1.2, room temperature
[14] = oral administration 0.1 mmol/kg
[15] = intravenous administration 0.01 mmol/kg

Excerpt for Stability in rat plasma: as §1, §2, §3

Row | SMILES | solubility at 24 h [1, 12] | Percentage of the compound remaining in plasma (Stability in dog plasma; 0 minute) | Percentage of the compound remaining in plasma (Stability in dog plasma; 37° C., 15 minutes) | Percentage of the compound remaining in plasma (Stability in dog plasma; 37° C., 30 minutes) | Percentage of the compound remaining in plasma (Stability in dog plasma; 37° C., 60 minutes) | Percentage of the compound remaining in plasma (Stability in dog plasma; 37° C., 120 minutes) | Percentage of the compound remaining in plasma ([3]; 0 minute) | Percentage of the compound remaining in plasma ([3]; 37° C., 15 minutes) | Percentage of the compound remaining in plasma ([3]; 37° C., 30 minutes) | Percentage of the compound remaining in plasma ([3]; 37° C., 60 minutes) | Percentage of the compound remaining in plasma ([3]; 37° C., 120 minutes) | AUC0-inf [4, 14] | Percentage of the compound remaining in plasma (Stability in rat plasma; 0 minute) | Percentage of the compound remaining in plasma (Stability in rat plasma; 37° C., 15 minutes) | Percentage of the compound remaining in plasma (Stability in rat plasma; 37° C., 30 minutes) | Percentage of the compound remaining in plasma (Stability in rat plasma; 37° C., 60 minutes) | Percentage of the compound remaining in plasma (Stability in rat plasma; 37° C., 120 minutes) | Percentage of the compound remaining in plasma ([5]; 0 minute) | Percentage of the compound remaining in plasma ([5]; 37° C., 15 minutes) | Percentage of the compound remaining in plasma ([5]; 37° C., 30 minutes) | further results
1 | CCC(CC)C(=O)OCOc1ccc([N+](=O)[O-])c2cccnc12 [Compound 5, (5-nitroquinolin-8-yloxy)methyl 2-ethylbutanoate] | 13 µg/mL (≈ 40.9 µM) | 100.0% | 75.0% | 50.6% | 27.1% | 12.0% | 100.0% | 0.0% | 0.0% | 0.0% | 0.0% | 1760 ng*hmL^−1 | 100.0% | 2.2% | 0.0% | 0.0% | 0.0% | 100.0% | 68.5% | 39.5% | solubility at 24 h [1, 10]: 13.1 µg/mL (≈ 41.1 µM); solubility at 24 h [1, 11]: 11.1 µg/mL (≈ 34.9 µM); solubility at 24 h [1, 13]: 204 µg/mL (≈ 640 µM); Percentage of the compound remaining in mouse liver microsome ([2]; with coenzyme): 0.44%; Percentage of the compound remaining in mouse liver microsome ([2]; without coenzyme): 0.34%; absorption in beagle dogs compared with nitroxoline [4]: well absorbed; Percentage of the compound remaining in plasma ([5]; 37° C., 60 minutes): 11.9%; Percentage of the compound remaining in plasma ([5]; 37° C., 120 minutes): 1.6%; Percentage of the compound remaining in dog liver microsome ([6]; with coenzyme): 0.19%; Percentage of the compound remaining in dog liver microsome ([6]; without coenzyme): 4.06%; Percentage of the compound remaining in rat liver microsome ([7]; with coenzyme): 0.16%; Percentage of the compound remaining in rat liver microsome ([7]; without coenzyme): 1.10%; Percentage of the compound remaining in human liver microsome ([8]; with coenzyme): 0.15%; Percentage of the compound remaining in human liver microsome ([8]; without coenzyme): 0.88%
2 | CCC(CC)C(=O)OC(C)Oc1ccc([N+](=O)[O-])c2cccnc12 (stereo not shown) [Compound 51, 1-(5-nitroquinolin-8-yloxy)ethyl 2-ethylbutanoate] | 6.62 µg/mL (≈ 19.9 µM) | 100.0% | 103.7% | 93.7% | 89.1% | 93.3% | 100.0% | 96.4% | 87.0% | 78.1% | 69.0% | 2474 ng*hmL^−1 | 100.0% | 70.2% | 67.8% | 48.0% | 35.3% | 100.0% | 97.2% | 98.0% | solubility at 24 h [1, 10]: 7.07 µg/mL (≈ 21.3 µM); solubility at 24 h [1, 11]: 5.69 µg/mL (≈ 17.1 µM); solubility at 24 h [1, 13]: 91.4 µg/mL (≈ 275 µM); Percentage of the compound remaining in mouse liver microsome ([2]; with coenzyme): 0.02%; Percentage of the compound remaining in mouse liver microsome ([2]; without coenzyme): 0.09%; absorption in beagle dogs compared with nitroxoline [4]: well absorbed; AUC0-inf [4, 15]: 1153 ng*hmL^−1; Percentage of the compound remaining in plasma ([5]; 37° C., 60 minutes): 94.1%; Percentage of the compound remaining in plasma ([5]; 37° C., 120 minutes): 84.6%; Percentage of the compound remaining in dog liver microsome ([6]; with coenzyme): 0.07%; Percentage of the compound remaining in dog liver microsome ([6]; without coenzyme): 0.28%; Percentage of the compound remaining in rat liver microsome ([7]; with coenzyme): 0.08%; Percentage of the compound remaining in rat liver microsome ([7]; without coenzyme): 2.92%; Percentage of the compound remaining in human liver microsome ([8]; with coenzyme): 0.06%; Percentage of the compound remaining in human liver microsome ([8]; without coenzyme): 0.25%
3 | O=[N+]([O-])c1ccc(O)c2ncccc12 [Nitroxoline] | 352 µg/mL (≈ 1850 µM) | 100.0% | 100.8% | 101.1% | 95.3% | 98.4% | 100.0% | 101.2% | 104.0% | 101.8% | 100.4% | 4780 ng*hmL^−1 | 100.0% | 93.9% | 94.1% | 95.3% | 88.4% | 100.0% | 99.3% | 98.3% | Percentage of the compound remaining in plasma ([9]; 0 minute): 100.0%; Percentage of the compound remaining in plasma ([9]; 37° C., 15 minutes): 95.8%; Percentage of the compound remaining in plasma ([9]; 37° C., 30 minutes): 97.4%; Percentage of the compound remaining in plasma ([9]; 37° C., 60 minutes): 97.4%; Percentage of the compound remaining in plasma ([9]; 37° C., 120 minutes): 93.0%; AUC0-inf [4, 15]: 3300 ng*hmL^−1; Percentage of the compound remaining in plasma ([5]; 37° C., 60 minutes): 100.6%; Percentage of the compound remaining in plasma ([5]; 37° C., 120 minutes): 91.6%
